In EP3650451A1, “COMPOUNDS AND THEIR USES AS FLUORESCENT PROBES” (Consejo Superior de Investigaciones Cientificas, priority 2017, dated 2019):

Key:
SCC38 cells = assay: Co-localization by co-staining with MitoTracker Red, fluorescence microscopy of live cells; type: cell-based, human; settings: compound 4 50 nM, MitoTracker® Red 25 nM, 30 minutes
Description: The cell assays were carried out on two human cell lines: SCC38 and HeLa. The SCC38 line is derived from human laryngeal epidermoid carcinoma patients, while HeLa, the first human cell line established in culture, is derived from cervical cancer. The culture medium used for both cell lines was DMEM (Dulbecco's Modified Eagle's Medium) supplemented with 10% of fetal bovine serum (FBS), 100 U/mL of penicillin, 200 µg/mL of streptomycin, 100 µmol/L of non-essential amino acids and 2 mmol/L of glutamine. The cultures were incubated at 37 °C and 5% of CO2.
These cell lines were stained with the fluorescent probes synthesized following the following protocol: 30,000-50,000 SCC38 cells were plated on 24-well glass-bottomed plates and cultured to 70% confluence. The culture medium was then removed from the well and washed at least three times with DMEM medium without additives. Next, 1 mL of DMEM and the corresponding fluorescent compound was added to the well. The cells were incubated at 37 °C for 30 minutes, after which the medium was removed and newly washed with DMEM. Lastly, complete medium was added and the cells were observed under the microscope. Microscopy analysis was performed using a Zeiss Axio Observer Z1 microscope with AxioCam MRM and ApoTome 2 (Carl Zeiss, Germany) with different 40X 63X oil immersion objectives. The cells were also stained with MitoTracker® Red CMXRos (Thermo Fisher), following the manufacturer's instructions, with the aim of carrying out comparative studies with the new fluorescent markers synthesized herein. Initially, both compounds 3 and 4 were used at a concentration of 50 nM, and staining time was also 30 minutes.
In order to confirm the specificity of the mitochondrial labeling, co-localization studies were carried out by co-staining with the commercial mitochondrial marker MitoTracker® Red in the cell line. Compound 4 was used at a concentration of 50 nM and MitoTracker® Red at 25 nM. Both compounds were added simultaneously and incubated for 30 minutes.

[1] = Time evolution of the photophysical properties in water; type: physicochemical; design: key to φ: fluorescence quantum yield, fraction (0.65 = 65%); settings: for kfl / knr / εmax / λab / λfl / τ / φ: water
Description: Indeed, the fluorescence yield remains constant for 7 hours. However, due to the oligomerization of hydrolysis product 6 and to the ensuing precipitation of the resulting oligomers, fluorescence efficiency gradually decreases in 24 hours, although it maintains a quantum yield of 65%. […] Indeed, the diffusion of the dye outside of the cell organelle, which occurs in dyes not covalently bonded thereto, is one of the main problems in the development of fluorescent biological markers because it entails a significant reduction in fluorescent efficiency and, thus, in the accuracy and reproducibility of the experiments. The rational design of probe 4 must, therefore, prevent this loss of fluorescence signal and improve the quality and accuracy of the measurements, thereby enhancing its applicability as a biological probe.

CC1=CC(C)=[N+]2C1=C(c1c(C)cc(C)cc1C)c1c(C)cc(C)n1[B-]21OC(=O)C[C@H](C[N+](C)(C)C)O1 (stereo partly drawn) [Compound 4]
location of the stain in the mitochondria (SCC38 cells; co-staining): preferably located in its interior (the mitochondrial matrix)
co-localization with MitoTracker® Red (SCC38 cells; added simultaneously): good co-localization
cytotoxic effects (SCC38 cells; simultaneous co-staining): without interferences or cytotoxic effects
effect of hydrolysis on fluorescence emission ([1]; in water): does not entail a significant reduction in its fluorescence emission
time for which the fluorescence yield remains constant ([1]; in water): 7 h
quantum yield ([1]; in water, in 24 hours): 65%
kfl ([1]; time 00:00 (hours:min)): 1.14 10^8s^-1
knr ([1]; time 00:00 (hours:min)): 0.23 10^8s^-1
εmax ([1]; time 00:00 (hours:min)): 3.8 10^4 M^-1 CM^-1
λab ([1]; time 00:00 (hours:min)): 499 nm
λfl ([1]; time 00:00 (hours:min)): 511 nm
τ ([1]; time 00:00 (hours:min)): 7.30 ns
φ ([1]; time 00:00 (hours:min)): 0.83
kfl ([1]; time 00:10 (hours:min)): 1.14 10^8s^-1
knr ([1]; time 00:10 (hours:min)): 0.24 10^8s^-1
εmax ([1]; time 00:10 (hours:min)): 3.8 10^4 M^-1 CM^-1
λab ([1]; time 00:10 (hours:min)): 498 nm
λfl ([1]; time 00:10 (hours:min)): 511 nm
τ ([1]; time 00:10 (hours:min)): 7.25 ns
φ ([1]; time 00:10 (hours:min)): 0.82
kfl ([1]; time 00:25 (hours:min)): 1.14 10^8s^-1
knr ([1]; time 00:25 (hours:min)): 0.25 10^8s^-1
εmax ([1]; time 00:25 (hours:min)): 3.8 10^4 M^-1 CM^-1
λab ([1]; time 00:25 (hours:min)): 498 nm
λfl ([1]; time 00:25 (hours:min)): 511 nm
τ ([1]; time 00:25 (hours:min)): 7.20 ns
φ ([1]; time 00:25 (hours:min)): 0.82
kfl ([1]; time 00:50 (hours:min)): 1.16 10^8s^-1
knr ([1]; time 00:50 (hours:min)): 0.24 10^8s^-1
εmax ([1]; time 00:50 (hours:min)): 3.8 10^4 M^-1 CM^-1
λab ([1]; time 00:50 (hours:min)): 498 nm
λfl ([1]; time 00:50 (hours:min)): 509 nm
τ ([1]; time 00:50 (hours:min)): 7.15 ns
φ ([1]; time 00:50 (hours:min)): 0.83
kfl ([1]; time 01:20 (hours:min)): 1.17 10^8s^-1
knr ([1]; time 01:20 (hours:min)): 0.25 10^8s^-1
εmax ([1]; time 01:20 (hours:min)): 3.8 10^4 M^-1 CM^-1
λab ([1]; time 01:20 (hours:min)): 498 nm
λfl ([1]; time 01:20 (hours:min)): 509 nm
τ ([1]; time 01:20 (hours:min)): 7.05 ns
φ ([1]; time 01:20 (hours:min)): 0.83
kfl ([1]; time 02:00 (hours:min)): 1.18 10^8s^-1
knr ([1]; time 02:00 (hours:min)): 0.25 10^8s^-1
εmax ([1]; time 02:00 (hours:min)): 3.8 10^4 M^-1 CM^-1
λab ([1]; time 02:00 (hours:min)): 497 nm
λfl ([1]; time 02:00 (hours:min)): 509 nm
τ ([1]; time 02:00 (hours:min)): 7.00 ns
φ ([1]; time 02:00 (hours:min)): 0.83
kfl ([1]; time 03:00 (hours:min)): 1.18 10^8s^-1
knr ([1]; time 03:00 (hours:min)): 0.26 10^8s^-1
εmax ([1]; time 03:00 (hours:min)): 3.8 10^4 M^-1 CM^-1
λab ([1]; time 03:00 (hours:min)): 497 nm
λfl ([1]; time 03:00 (hours:min)): 509 nm
τ ([1]; time 03:00 (hours:min)): 6.95 ns
φ ([1]; time 03:00 (hours:min)): 0.82
kfl ([1]; time 04:00 (hours:min)): 1.19 10^8s^-1
knr ([1]; time 04:00 (hours:min)): 0.26 10^8s^-1
εmax ([1]; time 04:00 (hours:min)): 3.8 10^4 M^-1 CM^-1
λab ([1]; time 04:00 (hours:min)): 497 nm
λfl ([1]; time 04:00 (hours:min)): 509 nm
τ ([1]; time 04:00 (hours:min)): 6.90 ns
φ ([1]; time 04:00 (hours:min)): 0.82
kfl ([1]; time 05:00 (hours:min)): 1.22 10^8s^-1
knr ([1]; time 05:00 (hours:min)): 0.26 10^8s^-1
εmax ([1]; time 05:00 (hours:min)): 3.8 10^4 M^-1 CM^-1
λab ([1]; time 05:00 (hours:min)): 497 nm
λfl ([1]; time 05:00 (hours:min)): 508 nm
τ ([1]; time 05:00 (hours:min)): 6.80 ns
φ ([1]; time 05:00 (hours:min)): 0.82
kfl ([1]; time 06:00 (hours:min)): 1.23 10^8s^-1
knr ([1]; time 06:00 (hours:min)): 0.26 10^8s^-1
εmax ([1]; time 06:00 (hours:min)): 3.8 10^4 M^-1 CM^-1
λab ([1]; time 06:00 (hours:min)): 496 nm
λfl ([1]; time 06:00 (hours:min)): 508 nm
τ ([1]; time 06:00 (hours:min)): 6.70 ns
φ ([1]; time 06:00 (hours:min)): 0.83
kfl ([1]; time 07:00 (hours:min)): 1.24 10^8s^-1
knr ([1]; time 07:00 (hours:min)): 0.26 10^8s^-1
εmax ([1]; time 07:00 (hours:min)): 3.8 10^4 M^-1 CM^-1
λab ([1]; time 07:00 (hours:min)): 496 nm
λfl ([1]; time 07:00 (hours:min)): 508 nm
τ ([1]; time 07:00 (hours:min)): 6.65 ns
φ ([1]; time 07:00 (hours:min)): 0.83
kfl ([1]; time 24:00 (hours:min)): 1.03 10^8s^-1
knr ([1]; time 24:00 (hours:min)): 0.54 10^8s^-1
εmax ([1]; time 24:00 (hours:min)): 3.7 10^4 M^-1 CM^-1
λab ([1]; time 24:00 (hours:min)): 496 nm
λfl ([1]; time 24:00 (hours:min)): 507 nm
τ ([1]; time 24:00 (hours:min)): 6.50 ns
φ ([1]; time 24:00 (hours:min)): 0.65
